Measurements as given in patent US20250360106A1, “PREVENTING IMMUNOTHERAPY-INDUCED EDEMA USING ANGIOTENSIN RECEPTOR BLOCKERS” (The General Hospital Corporation, priority 2022, published 2025).
“Also recorded” adds a separate entry of the source.

Legend:
[1] = tested on: GBM cells; conditions: at physiological levels; cited from earlier work
[2] = tested on: GL261 tumors; experiment: Tumor edema by wet/dry weight (water content), GL261 model; assay type: in vivo; conditions: mice under anti-PD1 treatment
Method: (§1) Edema in the tumor was assessed immediately after animal sacrifice via wet/dry weight analysis to determine the water content as previously described (43).

[3] = tested on: GBM patients; experiment: Patient overall survival, Kaplan-Meier (trial NCT00662506); assay type: in vivo, human; conditions: cediranib, patients not on ASIs; n=33
[4] = tested on: 005 GSC; experiment: Survival study, 005 GSC model; assay type: in vivo, mice; conditions: losartan with anti-PD1, no detectable tumors over 100 days
Method: (§2) Brain tumor implantation in the forebrain (50,000-100,000 cells), cranial window surgery and tumor resection as part of the standard of care treatment regimen were conducted as previously described (16, 43, 45). Mice were allowed to recover for 10-14 days after cranial window surgery prior to tumor implantation, and for 2 days after resection surgery (as part of the standard of care or bihemispheric model) prior to treatment initiation.

[5] = tested on: PD-L1; experiment: PD-L1 immunohistochemistry, GL261; assay type: in vivo, mice; conditions: 2 weeks of losartan, n=11-13
From the text: (§3) Brains with tumors were prepped and stained for histology as previously described (45) and imaged on a TissueFAXS (TissueGnostics) slide scanner at the Ragon Institute, Massachusetts Institute of Technology.

[6] = tested on: GBM; conditions: in combination with the standard of care; cited from earlier work
[7] = tested on: CT2A; experiment: Survival study, CT2A model; assay type: in vivo, mice
Method: as §2

[8] = tested on: GL261 tumor blood vessels; experiment: OCT imaging of tumor perfusion; assay type: in vivo, mice; conditions: vs PBS-treated controls
From the text: In vivo imaging of perfused vessels was achieved via a custom-built optical coherence tomography (OCT) system as previously described (15). […] A depth-resolved profile was generated each day, and the raw tomograms were processed as previously described. Images across multiple days were co-registered using the Scale-invariant feature transform (SIFT) algorithm in ImageJ and Python.

[9] = tested on: GL261; experiment: Survival study, GL261 model; assay type: in vivo, mice; conditions: losartan with anti-PD1, no detectable tumors over 100 days
Method: as §2

[10] = tested on: hyaluronic acid (HA); experiment: Hyaluronic acid immunofluorescent imaging, GL261; assay type: in vivo, mice; conditions: 2 weeks of losartan, n=5
From the text: as §3

[11] = tested on: MT-MMP-1 and -2 (Mt1, Mt2); experiment: scRNASeq of tumor endothelial cells (TECs) from GL261 tumors; assay type: in vivo, mice
Method: Following the single-cell suspension techniques of flow cytometry, tumor cells were blocked in 1% bovine serum albumin in phosphate-buffered saline solution (1% BSA/PBS). Cell suspensions were subsequently stained for flow cytometry for 30 min at 4° C. using antibodies specific for CD45 [30F11]-VioBlue from Miltenyi, CD3 [145-2C11]-PE from Biolegends, and CD 31 [MEC 13.3]-PE from BD Biosciences. Cells were washed with cold PBS, and then incubated for 15 min in 1.5 mL of 1% BSA/PBS containing 1 uM calcein AM (Life Technologies) and 0.33 uM TO-PRO-3 iodide (Life Technologies). Sorting was performed with the FACS Aria Fusion Special Order System (Becton Dickinson) using 488 nm (calcein AM, 530/30 filter; CD3-PE, 585/42 filter), 640 nm (TO-PRO-3, 670/14 filter), and 405 nm (CD45-VioBlue, 450/50 filter) lasers. […]
Sequencing data was processed from raw reads to gene expression matrices, starting with fbcl2fastq (v2.20.0) to generate demultiplexed FASTQ files. Bowtie was used to align the resulting paired-end scRNA-seq reads to the mouse transcriptome (mm10). Gene expression levels were quantified as transcripts-per-million (TPM) by running RSEM (v1.2.19) in paired-end mode. […]

[12] = tested on: GL261 tumors; experiment: Flow cytometry of tumors and cervical draining lymph nodes, GL261; assay type: in vivo, mice
Method: Single-cell suspensions were prepared from tumors and cervical draining lymph nodes that were isolated and dissected under stereotactic microscope. Cells were stained and processed (on a BD LSRFortessa X-20 Cell analyzer) and analyzed (FlowJo, Tree Star) as previously described (16). The following antibodies from BD Biosciences, EBioscience, and BioLegend were used at 1:200 dilutions: CD45-BV605, CD3-BV785, CD4-BV640, CD8-BV711A, NK1.1-APC; FoxP3-BV421; PD1-PerCP710A; TIGIT-PE Cy7; TIM3-PE; CD19-BV510; K167-FITC; GranzymeB-PE Cy7; CD11 b-BV785; MHCII-BV605; F4/80-PerCP Cy5.5; CX3CR1-APC; CD206-PE CY7; CD86-BV650; CCR2-PE; GR1-AF700.

[13] = tested on: GL261; experiment: Survival study, GL261 model with standard of care (resection, radiation, temozolomide); assay type: in vivo, mice
Method: as §2

[14] = tested on: glioblastoma; experiment: Survival of mice with glioblastoma under losartan and ICB (summary statement); assay type: in vivo; conditions: losartan with ICB, in lieu of corticosteroids
[15] = tested on: GL261 tumors; experiment: Bulk RNASeq of GL261 tumors; assay type: in vivo, mice
[16] = tested on: GL261; experiment: Solid stress by 3D micro-ultrasound tissue deformation, GL261; assay type: in vivo, mice; conditions: 2 weeks of losartan, n=4
From the text: Tumor size was visualized by 3D micro-ultrasound in anesthetized mice through the transparent cranial windows (45). Ultrasound was also used to measure tumor deformation as a readout of solid stress, following previous methods (14).

[17] = tested on: 005 GSC; experiment: Tumor edema by wet/dry weight, 005 GSC model; assay type: in vivo, mice; conditions: after 2 weeks of treatment
Method: as §1

[18] = tested on: recurrent GBM patient; experiment: MR T2-FLAIR imaging of a recurrent GBM patient before and after anti-PD-L1; assay type: in vivo, human; conditions: after 4 months of anti-PD-L1 treatment; NCT02336165
[19] = tested on: GBM patients; conditions: human, in vivo; cited from earlier work
[20] = GL261, standard of care + anti-PD1 + losartan

Compound: CNC(=O)[C@H](Cc1c[nH]c2ccccc12)NC(=O)[C@@H](CC(=O)NO)CC(C)C [Ilomastat]
- toxicity to GBM cells [1]: non-toxic
- anti-PD1-induced edema [2]: controls anti-PD1-induced edema comparably to losartan; also recorded: phenocopied the ability of losartan to prevent anti-PD1-induced edema

Compound: COc1cc2c(Oc3ccc4[nH]c(C)cc4c3F)ncnc2cc1OCCCN1CCCC1 [cediranib]
- overall survival [3]: 527 days

Compound: CCCCc1nc(Cl)c(CO)n1Cc1ccc(-c2ccccc2-c2nn[nH]n2)cc1 [losartan]
- long-term survivors (LTS) [4]: 22%
- PD-L1 protein expression [5]: reduces
- median OS [6]: failed to improve median OS
- effect of adding losartan to anti-PD1 on survival [7]: failed to further enhance ICB efficacy
- tumor vessel normalization and perfusion [8]: greater overall perfusion
- anti-PD1-induced edema [2]: decreases anti-PD1-induced edema
- long-term survivors (LTS) [9]: 15%
- HA levels [10]: reduces
- TEC MT-MMP-1 and -2 (Mt1, Mt2) expression [11]: downregulating
- myeloid cells in tumors [12]: fewer myeloid cells
- OS under the standard of care without ICB ([13]; GBM mouse models, losartan not given in conjunction with ICB): does not improve OS
- long-term survivors [13, 20]: 43%
- tumor re-challenge of long-term survivors [13, 20]: rejected tumor re-challenge
- mice cured ([13]; losartan with ICB in combination with standard of care treatment): 40%
- mice cured [14]: 20%
- global and pro-tumor (M2-like) TAM-associated genes ([15]; bulk RNASeq): reduced the expression
- microglia-associated genes ([15]; bulk RNASeq): upregulated
- gene expression related to ECM, angiogenesis, immunosuppression, and hypoxia ([15]; vs controls, n=3): significantly reduced
- solid stress (tissue deformation) [16]: reduces
- anti-PD1-induced edema [17]: decreases anti-PD1-induced edema

Compound: MEDI4763: anti-PD-L1 (NCT02336165) given to a recurrent GBM patient
- edema on MR T2-FLAIR images [18]: increased edema

Compound: bevacizumab
- OS in GBM patients under ICB therapy [19]: failed to improve OS
